The values that follow come from ChEMBL document CHEMBL5465560, “Selectivity Literature for EUbOPEN Chemogenomic Library” (2024).

In test [1] the target is T1, Dual specificity mitogen-activated protein kinase kinase 6 (Homo sapiens) (UniProt P52564).
T1 sequence (whole entry): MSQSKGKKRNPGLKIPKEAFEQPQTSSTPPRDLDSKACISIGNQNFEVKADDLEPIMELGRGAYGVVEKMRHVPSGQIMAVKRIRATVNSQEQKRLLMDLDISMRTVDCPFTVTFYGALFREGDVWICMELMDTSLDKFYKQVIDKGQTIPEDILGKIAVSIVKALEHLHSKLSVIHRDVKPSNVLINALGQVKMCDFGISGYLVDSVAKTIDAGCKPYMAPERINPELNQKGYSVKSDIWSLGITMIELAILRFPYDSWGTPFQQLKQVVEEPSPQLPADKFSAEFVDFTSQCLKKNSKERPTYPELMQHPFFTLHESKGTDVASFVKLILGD
Put plainly: Selectivity interaction (Kinase panel (Z-LYTE Assay)) EUB0001632a MAP2K6. The settings on record: at 10 µM.

Test [2] concerns Epidermal growth factor receptor (Homo sapiens), P00533 [UNDEFINED MUTATION]. As to the kind of experiment: Selectivity interaction (KinomeScan (DiscoverX)) EUB0000655a EGFR. Particulars: at 10 µM.
Test [3] has as its target T2, Ephrin type-A receptor 1 (Homo sapiens) (UniProt P21709).
T2 sequence (whole entry): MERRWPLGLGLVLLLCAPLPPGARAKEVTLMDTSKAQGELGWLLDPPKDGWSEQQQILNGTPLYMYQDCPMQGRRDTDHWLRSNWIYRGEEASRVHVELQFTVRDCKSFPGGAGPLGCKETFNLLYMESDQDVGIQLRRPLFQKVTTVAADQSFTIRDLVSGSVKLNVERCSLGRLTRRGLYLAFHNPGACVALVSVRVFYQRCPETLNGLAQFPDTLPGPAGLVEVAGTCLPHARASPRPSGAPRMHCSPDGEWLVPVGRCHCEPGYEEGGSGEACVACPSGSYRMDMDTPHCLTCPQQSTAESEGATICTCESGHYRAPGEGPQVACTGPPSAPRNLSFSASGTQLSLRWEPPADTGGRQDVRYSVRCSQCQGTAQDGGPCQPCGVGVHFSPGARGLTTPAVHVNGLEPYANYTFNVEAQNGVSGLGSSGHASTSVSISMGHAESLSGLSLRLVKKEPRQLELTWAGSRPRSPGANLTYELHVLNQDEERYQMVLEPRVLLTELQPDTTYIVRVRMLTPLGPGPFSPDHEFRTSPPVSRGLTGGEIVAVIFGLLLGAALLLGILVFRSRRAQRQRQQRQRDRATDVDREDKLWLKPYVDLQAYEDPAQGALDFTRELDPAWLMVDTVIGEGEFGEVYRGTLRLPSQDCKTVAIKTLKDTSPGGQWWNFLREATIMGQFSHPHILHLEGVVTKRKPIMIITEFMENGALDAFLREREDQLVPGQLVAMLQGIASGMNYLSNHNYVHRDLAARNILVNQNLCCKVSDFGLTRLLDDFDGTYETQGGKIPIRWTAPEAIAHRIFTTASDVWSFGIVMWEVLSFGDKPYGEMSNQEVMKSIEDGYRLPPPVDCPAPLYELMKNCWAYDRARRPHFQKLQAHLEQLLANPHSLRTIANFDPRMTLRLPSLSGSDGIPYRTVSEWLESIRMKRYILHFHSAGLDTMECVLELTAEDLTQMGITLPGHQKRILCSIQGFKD
Put plainly: Selectivity interaction (KinomeScan (DiscoverX)) EUB0001079a EPHA1. Particulars: at 1 µM.

The target in test [4] is Serine/threonine-protein kinase PLK1 (Homo sapiens, UniProt P53350). As to the kind of experiment: Selectivity interaction (KinomeScan (DiscoverX)) EUB0001049a PLK1. The settings on record: at 1 µM.
Test [5] addresses Serine/threonine-protein kinase VRK2 (Homo sapiens) (UniProt Q86Y07). Put plainly: Selectivity interaction (KinomeScan (DiscoverX)) EUB0000695a VRK2. The settings on record: at 100 nM.
Test [6] addresses T3, Calcium/calmodulin-dependent protein kinase type IV (Homo sapiens) (UniProt Q16566).
T3 sequence (whole entry): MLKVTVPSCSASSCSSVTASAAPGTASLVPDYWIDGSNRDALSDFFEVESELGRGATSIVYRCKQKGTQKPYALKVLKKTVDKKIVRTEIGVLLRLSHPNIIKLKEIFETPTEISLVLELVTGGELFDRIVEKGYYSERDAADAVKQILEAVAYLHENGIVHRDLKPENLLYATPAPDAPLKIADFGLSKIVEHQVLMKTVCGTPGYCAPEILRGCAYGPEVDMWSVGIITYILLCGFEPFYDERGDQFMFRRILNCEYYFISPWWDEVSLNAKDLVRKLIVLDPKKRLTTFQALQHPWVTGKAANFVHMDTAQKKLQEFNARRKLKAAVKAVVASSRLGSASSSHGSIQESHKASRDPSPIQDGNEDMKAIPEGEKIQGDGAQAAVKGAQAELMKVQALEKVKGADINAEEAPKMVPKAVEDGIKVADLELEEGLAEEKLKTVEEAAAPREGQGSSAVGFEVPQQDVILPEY
Particulars: at 10 µM.

Chain of Serine/threonine-protein kinase VRK2 (Homo sapiens) (Q86Y07 whole entry): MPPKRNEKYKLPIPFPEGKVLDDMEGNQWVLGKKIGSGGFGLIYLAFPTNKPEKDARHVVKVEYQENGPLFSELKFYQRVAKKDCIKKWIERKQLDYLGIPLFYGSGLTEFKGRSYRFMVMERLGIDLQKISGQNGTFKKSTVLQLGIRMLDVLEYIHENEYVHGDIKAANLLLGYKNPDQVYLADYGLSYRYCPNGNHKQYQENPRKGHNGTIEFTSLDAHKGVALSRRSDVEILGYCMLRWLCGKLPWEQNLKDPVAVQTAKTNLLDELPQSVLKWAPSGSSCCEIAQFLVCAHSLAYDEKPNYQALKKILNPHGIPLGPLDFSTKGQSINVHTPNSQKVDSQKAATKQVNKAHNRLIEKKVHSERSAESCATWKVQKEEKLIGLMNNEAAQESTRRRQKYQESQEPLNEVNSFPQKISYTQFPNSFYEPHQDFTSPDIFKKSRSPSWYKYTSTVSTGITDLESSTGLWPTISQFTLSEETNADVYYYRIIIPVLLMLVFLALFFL
Chain of Serine/threonine-protein kinase PLK1 (P53350 whole entry): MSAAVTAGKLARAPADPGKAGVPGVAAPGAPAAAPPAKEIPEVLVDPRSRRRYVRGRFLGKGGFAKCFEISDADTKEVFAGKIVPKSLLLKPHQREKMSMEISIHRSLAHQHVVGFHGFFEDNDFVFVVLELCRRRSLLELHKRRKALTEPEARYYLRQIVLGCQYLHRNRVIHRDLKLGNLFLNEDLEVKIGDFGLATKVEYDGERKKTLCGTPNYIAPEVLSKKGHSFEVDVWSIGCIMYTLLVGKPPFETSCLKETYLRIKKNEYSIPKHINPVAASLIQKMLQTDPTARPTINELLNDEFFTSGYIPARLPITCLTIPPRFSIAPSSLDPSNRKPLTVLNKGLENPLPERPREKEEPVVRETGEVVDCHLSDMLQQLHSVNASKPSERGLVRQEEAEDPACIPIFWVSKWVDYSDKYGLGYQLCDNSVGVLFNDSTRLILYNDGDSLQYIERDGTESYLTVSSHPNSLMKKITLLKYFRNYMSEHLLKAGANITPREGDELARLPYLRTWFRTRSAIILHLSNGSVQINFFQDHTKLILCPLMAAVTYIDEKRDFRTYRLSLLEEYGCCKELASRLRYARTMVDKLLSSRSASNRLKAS
Chain of Epidermal growth factor receptor (Homo sapiens), P00533 [UNDEFINED MUTATION] (P00533 whole entry, looked up, change not shown): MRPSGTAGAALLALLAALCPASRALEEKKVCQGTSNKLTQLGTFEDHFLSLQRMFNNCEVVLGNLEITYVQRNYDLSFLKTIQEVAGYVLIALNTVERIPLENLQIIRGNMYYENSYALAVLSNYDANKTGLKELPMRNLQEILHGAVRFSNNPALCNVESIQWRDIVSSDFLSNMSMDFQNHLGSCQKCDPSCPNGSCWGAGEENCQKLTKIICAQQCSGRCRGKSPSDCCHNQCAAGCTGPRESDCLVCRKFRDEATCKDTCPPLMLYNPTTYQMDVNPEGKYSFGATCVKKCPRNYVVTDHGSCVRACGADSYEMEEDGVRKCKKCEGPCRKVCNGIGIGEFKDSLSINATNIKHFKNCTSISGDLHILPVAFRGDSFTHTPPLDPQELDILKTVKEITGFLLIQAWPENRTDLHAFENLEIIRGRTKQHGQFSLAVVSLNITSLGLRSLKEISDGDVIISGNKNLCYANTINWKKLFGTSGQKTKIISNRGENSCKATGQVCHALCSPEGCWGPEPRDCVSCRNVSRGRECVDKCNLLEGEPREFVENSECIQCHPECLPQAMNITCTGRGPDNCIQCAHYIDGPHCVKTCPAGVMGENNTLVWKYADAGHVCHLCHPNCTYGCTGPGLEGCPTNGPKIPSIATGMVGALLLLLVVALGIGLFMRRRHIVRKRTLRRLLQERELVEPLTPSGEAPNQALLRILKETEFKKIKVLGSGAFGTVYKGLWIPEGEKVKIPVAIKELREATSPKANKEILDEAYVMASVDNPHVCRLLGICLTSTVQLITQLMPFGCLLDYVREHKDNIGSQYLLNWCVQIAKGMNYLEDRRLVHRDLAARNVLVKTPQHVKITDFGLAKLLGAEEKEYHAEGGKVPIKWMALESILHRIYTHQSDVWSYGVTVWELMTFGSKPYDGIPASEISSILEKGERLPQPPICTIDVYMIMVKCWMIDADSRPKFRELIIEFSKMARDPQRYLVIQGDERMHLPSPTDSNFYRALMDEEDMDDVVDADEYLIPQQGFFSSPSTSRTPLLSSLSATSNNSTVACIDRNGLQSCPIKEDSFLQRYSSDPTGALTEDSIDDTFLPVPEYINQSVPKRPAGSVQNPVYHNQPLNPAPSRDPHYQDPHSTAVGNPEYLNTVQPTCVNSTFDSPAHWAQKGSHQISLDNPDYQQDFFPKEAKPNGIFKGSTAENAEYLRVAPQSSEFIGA

As to `Cn1cc(-n2cnc3c(NCc4nc5cc(Cl)c(Cl)cc5[nH]4)nc(N4CCOCC4)nc32)cn1`, the % of control in test [1] worked out at 5.11%.
In turn, `CN(C)CCOc1ccc(-c2nc(-c3ccncc3)c(-c3ccc4c(c3)CC/C4=N\O)[nH]2)cc1` displayed a % of control in test [2] of 92%.
Compound `Nc1cnc(N2CCc3cc(S(=O)(=O)Nc4c(F)cc(Cl)cc4F)cc(N4CCCC4=O)c32)nc1` [TP-020n] gave a % of control in test [3] of 99%.
The compound `COc1cc(Nc2nc(C)cc(-c3cnn4nc(OC)ccc34)n2)cc(C(F)(F)F)c1` gave a % of control in test [4] of 87%.
With `Cc1cc(F)c(C(=O)Nc2cccc(-c3nncn3C(C)C)n2)cc1-n1cnc(C2CC2)c1`, in test [5], the % of control was determined as 100%.
`COCC(=O)NC/C=C/c1ccc2ncnc(Nc3ccc(Oc4ccc(C)nc4)c(C)c3)c2c1` [CP-724714]: in test [6], the % of control amounted to 86%.
